Drawing on patent US8895547B2, “Substituted phenyl-oxathiazine derivatives, method for producing them, drugs containing said compounds and the use thereof” (Sanofi, priority 2011, dated 2014), this text covers IC50 for twelve molecules.

In this test the target is T1, human 11β-HSD1 (Homo sapiens, UniProt P28845).
T1 construct: host or cells: microsome fraction
The test is described as follows: Enzymatic 11beta-HSD1 test (SPA-based detection). It counts as biochemical. The note with it: human 11β-HSD1 microsome fraction, [1,2-3H]-cortisone, NADPH, 37° C. 1 hour. In short, it runs like this:
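Scintillation proximity detection: anti-cortisol antibody on SPA-PVT beads captured tritiated cortisol. The stop mix also contained 0.01 mM SSR110887 and was equilibrated 1 h at room temperature before counting. Cortisol came from [1,2-3H]-cortisone ([…]), turned over by human 11β-HSD1 microsomal protein (0.2 µg) with 0.25 mM NADPH in HEPES buffer, 37 °C, 1 h.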

The structures appear in SMILES notation.

T1 sequence (P28845 whole entry): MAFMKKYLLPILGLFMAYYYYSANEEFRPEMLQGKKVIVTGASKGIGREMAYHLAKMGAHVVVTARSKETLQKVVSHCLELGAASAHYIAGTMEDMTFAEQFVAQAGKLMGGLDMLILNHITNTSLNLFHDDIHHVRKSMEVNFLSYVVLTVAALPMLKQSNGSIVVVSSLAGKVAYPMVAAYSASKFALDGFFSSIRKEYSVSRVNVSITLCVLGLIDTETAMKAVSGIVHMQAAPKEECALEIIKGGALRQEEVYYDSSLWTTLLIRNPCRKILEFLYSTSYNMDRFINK

Take `CC1(C)OC(N[C@@H](CCO)c2ccccc2F)=NS(=O)(=O)[C@@H]1c1ccc(-c2ccnc(C#N)c2)cc1` [Example 185, 4-(4-{(R)-2-[(S)-1-(2-fluorophenyl)-3-hydroxy-propylamino]-6,6-dimethyl-4,4-dioxo-5,6-dihydro-4H-4lambda6-[1,4,3]oxathiazin-5-yl}-phenyl)-pyridine-2-carbonitrile]: the IC50 (usually the concentration that inhibits the measured activity by half) worked out at 4 nM.
For `C[C@H](NC1=NS(=O)(=O)[C@@H](c2ccc(-c3ccnc(C#N)c3)cc2)C(C)(C)O1)c1ccccc1F` [Example 186, 4-(4-{(S)-2-[(S)-1-(2-fluorophenyl)-ethylamino]-6,6-dimethyl-4,4-dioxo-5,6-dihydro-4H-4lambda6-[1,4,3]oxathiazin-5-yl}-phenyl)-pyridine-2-carbonitrile] the value was 11 nM.
Molecule `C[C@H](NC1=NS(=O)(=O)[C@H](c2ccc(-c3ccnc(C#N)c3)cc2)C(C)(C)O1)c1ccccc1F` [Example 187, 4-(4-{(R)-2-[(S)-1-(2-fluorophenyl)-ethylamino]-6,6-dimethyl-4,4-dioxo-5,6-dihydro-4H-4lambda6-[1,4,3]oxathiazin-5-yl}-phenyl)-pyridine-2-carbonitrile] displayed an IC50 of 5 nM. This IC50 is about 2.2-fold lower than that of the molecule before.
As for `CC1(C)OC(N[C@@H](CCO)c2ccccc2F)=NS(=O)(=O)[C@H]1c1ccc(-c2ccnc(C(N)=O)c2)cc1` [Example 188, 4-(4-{(S)-2-[(S)-1-(2-fluorophenyl)-3-hydroxy-propylamino]-6,6-dimethyl-4,4-dioxo-5,6-dihydro-4H-4lambda6-[1,4,3]oxathiazin-5-yl}-phenyl)-pyridine-2-carboxamide], the IC50 came to 7 nM.
`CC1(C)OC(N[C@@H](CCO)c2ccccc2F)=NS(=O)(=O)[C@@H]1c1ccc(-c2ccnc(C(N)=O)c2)cc1` [Example 189, 4-(4-{(R)-2-[(S)-1-(2-fluorophenyl)-3-hydroxy-propylamino]-6,6-dimethyl-4,4-dioxo-5,6-dihydro-4H-4lambda6-[1,4,3]oxathiazin-5-yl}-phenyl)-pyridine-2-carboxamide] yielded an IC50 of 5 nM.
Next, `C[C@H](NC1=NS(=O)(=O)C(c2ccc(-c3ccnc(C#N)c3)nc2)C(C)(C)O1)c1ccccc1F` (stereo partly drawn) [Example 190, 5-{2-[(S)-1-(2-fluorophenyl)-ethylamino]-6,6-dimethyl-4,4-dioxo-5,6-dihydro-4H-4lambda6-[1,4,3]oxathiazin-5-yl}-[2,4′]bipyridinyl-2′-carbonitril]: 331 nM; `C[C@H](NC1=NS(=O)(=O)C(c2ccc(-c3ccnc(C#N)c3)nc2)C(C)(C)O1)c1ccccc1F` (stereo partly drawn) [Example 191, 5-{2-[(S)-1-(2-fluorophenyl)-ethylamino]-6,6-dimethyl-4,4-dioxo-5,6-dihydro-4H-4lambda6-[1,4,3]oxathiazin-5-yl}-[2,4′]bipyridinyl-2′-carbonitril]: 460 nM; `C[C@H](NC1=NS(=O)(=O)C(c2cccc(C(=O)N3CCOCC3)c2)C(C)(C)O1)c1ccccc1F` (stereo partly drawn) [Example 192, (3-{2-[(S)-1-(2-fluorophenyl)-ethylamino]-6,6-dimethyl-4,4-dioxo-5,6-dihydro-4H-4lambda6-[1,4,3]oxathiazin-5-yl}-phenyl)-morpholin-4-yl-methanone]: 252 nM.
Next, `C[C@H](NC1=NS(=O)(=O)C(c2cccc(C(=O)N3CCCN(C)CC3)c2)C(C)(C)O1)c1ccccc1F` (stereo partly drawn) [Example 193, (3-{2-[(S)-1-(2-fluorophenyl)-ethylamino]-6,6-dimethyl-4,4-dioxo-5,6-dihydro-4H-4lambda6-[1,4,3]oxathiazin-5-yl}-phenyl)-(4-methyl-[1,4]diazepan-1-yl)-methanone]: 476 nM; `C[C@H](NC1=NS(=O)(=O)C(c2cccc(C(=O)NCc3ccccn3)c2)C(C)(C)O1)c1ccccc1F` (stereo partly drawn) [Example 194, 3-{2-[(S)-1-(2-fluorophenyl)-ethylamino]-6,6-dimethyl-4,4-dioxo-5,6-dihydro-4H-4lambda6-[1,4,3]oxathiazin-5-yl}-N-pyridin-2-ylmethyl-benzamide]: 14 nM; `C[C@H](NC1=NS(=O)(=O)C(c2ccc(-c3ccc4nc(N)sc4c3)cc2)C(C)(C)O1)c1ccccc1F` (stereo partly drawn) [Example 195, 6-(4-{2-[(S)-1-(2-fluorophenyl)-ethylamino]-6,6-dimethyl-4,4-dioxo-5,6-dihydro-4H-4lambda6-[1,4,3]oxathiazin-5-yl}-phenyl)-benzothiazol-2-ylamine]: 40 nM.
For `C[C@H](NC1=NS(=O)(=O)C(c2ccc(-c3cnc(N)nc3)cc2)C(C)(C)O1)c1ccccc1F` (stereo partly drawn) [Example 196, {5-[4-(2-Amino-pyrimidin-5-yl)-phenyl]-6,6-dimethyl-4,4-dioxo-5,6-dihydro-4H-4lambda6-[1,4,3]oxathiazin-2-yl}-[(S)-1-(2-fluorophenyl)-ethyl]-amine] the value was 7 nM.
